Measured values: paper PMC6791019, “(−)-Epigallocatechin-3-gallate derivatives combined with cisplatin exhibit synergistic inhibitory effects on non-small-cell lung cancer cells” (Cancer Cell International, 2019)

Columns and labels:
[1] = test system: NCI-H441 cells; test: MTT cell proliferation assay, NCI-H441; type: cell-based, human; settings: 0-150 µM, 48 h
Protocol: (§1) The effects of the EGCG derivatives on the survival of NSCLC cells were determined using the MTT assay. A549, NCI-H441, and NCI-H1975 cells were seeded in 96-well plates (3 × 10^4 cells/well) and then treated with one of the EGCG derivatives alone (0, 30, 60, 90, 120, or 150 µM), cDDP alone (12 µM), or 12 μM cDDP plus one of the EGCG derivatives (100 µM) for 48 h. MTT was then added to the cells and the plates were incubated for a further 4 h. After removal of the culture medium, the produced MTT formazan crystals were dissolved with 150 µL DMSO and measured at 492 nm using a microplate reader. The percentage of inhibition was calculated as follows: inhibition ratio (IR, %) = (1 − OD(sample)/OD(control)) × 100%. The experiments were carried out in triplicate, and the IC50 (the concentration of drug that inhibits cell growth by 50%) values were determined.

[2] = test system: A549 cells; test: MTT cell proliferation assay, A549; type: cell-based, human; settings: 0-150 µM, 48 h
Protocol: as §1

[3] = test system: NCI-H1975 cells; test: MTT cell proliferation assay, NCI-H1975; type: cell-based, human; settings: 0-150 µM, 48 h
Protocol: as §1

[4] = test system: NCI-H441 cells; test: Cell cycle analysis by PI staining and flow cytometry; type: cell-based, human; settings: NCI-H441, 0, 50, 100, 150 μM
Protocol: Aliquots of 5 × 10^5 cells were harvested, washed with phosphate-buffered saline (PBS), and then fixed in 70% ethanol at 4 °C overnight. After fixation, the cells were washed twice with cold PBS and stained in binding buffer containing 1 µg/mL of propidium iodide (BD Biosciences) and RNase for 0.5 h. The samples were then analyzed by flow cytometry (BD FACSCalibur).

[5] = test system: NCI-H441 cells; test: Annexin V-FITC/PI apoptosis assay by flow cytometry; type: cell-based, human; settings: NCI-H441, 48 h
Protocol: Cell apoptosis was quantified using an annexin V/propidium iodide (PI) detection kit (BD Biosciences, PA, USA) and flow cytometry. Cells (5 × 10^5/well) were plated in six-well dishes and then treated with the EGCG derivatives with or without cDDP. After the treatment, the collected cells were incubated in 100 µL of binding buffer and 5 µL of FITC annexin V and 10 µL of PI were added to the suspension. The mixtures were gently vortexed and then incubated for 15 min at room temperature in the dark before performing the flow cytometry measurements (BD FACSCalibur) within 1 h.

[6] = test system: EGFR signaling pathway in NCI-H441 cells; test: Western blotting of EGFR signaling pathway proteins; type: cell-based, human; settings: NCI-H441, western blot after 12 h
Protocol: (§2) Samples containing equal amounts of proteins as indicated in the text were resolved by SDS polyacrylamide gel electrophoresis and transferred to PVDF membranes. The membranes were blocked with 5% BSA at room temperature for 1 h and then probed with primary antibodies overnight at 4 °C and incubated with the HRP-conjugated secondary antibodies for 1 h at room temperature. HRP was detected using the Pro-light HRP Chemiluminescent Kit (Tiangen Biotech, Beijing, China) and FluorChem E System (ProteinSimple, Santa Clara, CA, United States).

[7] = Transport across Caco-2 cell monolayers; type: in vitro ADME, human; settings: human; for Papp A→B at 30 min, 50 μg/mL / Papp A→B at 60 min, 50 μg/mL / Papp B→A at 30 min, 50 μg/mL / Papp B→A at 60 min, 50 μg/mL: Caco-2, 50 μg/mL; for Papp A→B at 30 min, 50 μg/mL / Papp A→B at 60 min, 50 μg/mL: apical to basolateral; for Papp B→A at 30 min, 50 μg/mL / Papp B→A at 60 min, 50 μg/mL: basolateral to apical; for Papp: Caco-2, summary of Table 1, read-out: apparent permeability coefficients (Papp), range over directions and times
Protocol: (§3) Caco-2 cells were grown as epithelial monolayers, seeded onto fibrillar collagen-coated polyethylene terephthalate (PET) Corning transwell inserts (1.12 cm^2) with a pore size of 3 μm at a density of 2.0 × 10^5 cells/insert, and incubated at 37 °C in an atmosphere of 5% CO2 and 95% relative humidity in complete DMEM. The medium was replaced every 2 days with 0.5 mL medium in the apical (AP) side and 1.5 mL in the basolateral (BL) side over a period of 21 days. The integrity of the cell monolayer was determined by measuring the TEER (transepithelial electrical resistance) using an epithelial voltohmmeter (EVOM). The TEER values for each monolayer were measured every 2 days until they exceeded 350 Ω cm^2. To ensure the integrity of the Caco-2 monolayers, the TEER values were monitored before and after the experiments.
(§4) To measure the transport of EGCG and compound 3 across the Caco-2 cell monolayer, both sides of the transwell were equilibrated for 30 min with warm Hank’s balanced salt solution (HBSS). The transport buffer containing EGCG and compound 3 was added to either the apical (0.5 mL) or the basolateral (1.5 mL) side of the insert, while the receiving compartment contained the corresponding volume of transport buffer. After incubation for 30 or 60 min, 100 μL samples were taken from the receiving chamber and immediately replenished with an equal volume of pre-warmed HBSS. The samples were acidified with an equal volume of 5% formic acid and then frozen until LC–MS analysis.
(§5) The apparent permeability coefficients (Papp) of the compounds were calculated using the following equation: Papp=dQ/dt×1/A·C0, where dQ/dt is the amount of solute transported across the Caco-2 barrier in time dt, C0 is the solute concentration in the apical compartment at time zero, and A is the cross-sectional area of the epithelium in contact with the apical solution.

[8] = test system: Caco-2 cell monolayers; test: Transport across Caco-2 cell monolayers; type: in vitro ADME, human; settings: Caco-2, 50 µg/mL, A→B
Protocol: as §3, §4, §5

[9] = test system: NCI-H441 xenograft; test: NCI-H441 xenograft model in nude mice; type: in vivo, BALB-C/nude mice; settings: for tumor growth compared with the control: compound 3 200 mg/kg per day, cDDP 2 mg/kg per 2 days, i.p., nude mice
Protocol: Twenty-four male BALB-C/nude mice were purchased from the Cavens Lab Animal (Changzhou, China). The mice were subcutaneously injected in the dorsal with NCI-H441 cells (4 × 10^6/0.2 mL PBS per mouse). The mice were randomly divided into four groups, including control, compound 3, cDDP, and compound 3 plus cDDP (n = 6, per group). The mice were treated with compound 3 (200 mg/kg per day) and cDDP (2 mg/kg per 2 days) alone or in combination. All drugs were given through intra-peritoneal injection. Tumour size was measured once every 2 days with a calipre (volume mm^3 = length × width × width/2). Body weight was recorded once every 2 days. After there weeks of treatment, all mice were euthanized by cervical dislocation and the tumors were excised into formalin, and portion of the tumor fresh frozen in liquid nitrogen for further processing and analysis.
Three micrometer sections were cut, deparaffinized in xylenes, rehydrated in ethanol, and washed in phosphate-buffered saline. The antigen was retrieved at 95 °C for 20 min in 0.01 M citrate buffer (pH 6.0). Then incubated with primary antibodies overnight at 4 °C, followed by incubation with the secondary antibody at RT for 1 h. The immunostaining was performed using DAB, and counterstained with hematoxylin.

[10] = test system: NCI-H441 cells; test: Western blotting of cell cycle and apoptosis proteins; type: cell-based, human; settings: NCI-H441, western blot, cDDP alone
Protocol: as §2

Row | Papp A→B at 30 min, 50 μg/mL [7] | Papp A→B at 60 min, 50 μg/mL [7] | Papp B→A at 30 min, 50 μg/mL [7] | Papp B→A at 60 min, 50 μg/mL [7] | Papp [7] | transepithelial transport rate, apical to basolateral, fold higher than EGCG [8] | SMILES | proliferation of NCI-H441 cells [1] | proliferation of A549 cells [2] | proliferation of NCI-H1975 cells [3] | cell cycle distribution, effect of increasing doses [4] | number of apoptotic cells compared to untreated control [5] | P-EGFR, P-AKT and P-ERK levels [6] | nude mouse body weight compared with the control group ([9]; compound 3 200 mg/kg per day i.p.) | tumor growth compared with the control [9] | levels of PCNA, p53, p21, cyclin D1 and cyclin E [10]
1 | 0.914 ×10⁻⁶ cm/s | 0.41 ×10⁻⁶ cm/s | 0.83 ×10⁻⁶ cm/s | 0.39 ×10⁻⁶ cm/s | 0.083 to 0.914 ×10⁻⁶ cm/s | 4.9 fold | O=C(O[C@@H]1Cc2c(OCc3cnnn3[C@@H]3O[C@H](CO)[C@@H](O)[C@H](O)[C@H]3O)cc(O)cc2O[C@@H]1c1cc(O)c(O)c(O)c1)c1cc(O)c(O)c(O)c1 [compound 3, (2R,3R)-7-Hydroxy-5-((1-((2R,3R,4S,5S,6R)-3,4,5-trihydroxy-6-(hydroxymethyl)tetrahydro-2H-pyran-2-yl)-1H-1,2,3-triazol-5-yl)methoxy)-2-(3,4,5-trihydroxyphenyl)chroman-3-yl 3,4,5-trihydroxybenzoate] | substantial dose-dependent growth inhibition | the same effect was not observed | the same effect was not observed | increased the proportion of cells in the S phase in a dose-dependent manner | significantly increased in a concentration-dependent manner | effectively inhibited these phosphorylation proteins in a dose-dependent manner | did not reduce the nude mouse body weight | reduced tumor growth | 
2 |  |  |  |  |  |  | [NH2][Pt]([NH2])([Cl])[Cl] [cDDP, cisplatin] |  |  |  |  |  |  |  | reduced tumor growth | minimal effects
3 | 0.189 ×10⁻⁶ cm/s | 0.32 ×10⁻⁶ cm/s | 0.89 ×10⁻⁶ cm/s | 0.083 ×10⁻⁶ cm/s | 0.083 to 0.914 ×10⁻⁶ cm/s |  | O=C(O[C@@H]1Cc2c(O)cc(O)cc2O[C@@H]1c1cc(O)c(O)c(O)c1)c1cc(O)c(O)c(O)c1 [EGCG, (−)-epigallocatechin-3-gallate] |  |  |  |  |  |  |  |  | 
